Results published in patent US6855536B2, “Materials and methods for the enhancement of effective root nodulation in legumes” (priority 2000, dated 2005).
“Also recorded” adds a separate entry of the source.

Tests used:
nolA-lacZ fusion = assay: nolA-lacZ (nolA1,2,3-lacZ) fusion β-galactosidase assay in B. japonicum; type: cell-based, Bradyrhizobium japonicum; conditions: for Induction of nolA expression (in words): B. japonicum harboring nolA-lacZ fusion
Protocol: (§1) Bacterial Stains, plasmids and culture conditions. For routine bacterial growth, B. japonicum cells were maintained on RDY medium (So, J. -S. et al. [1987] Mol. Gen. Genet. 207:15-23). Bacteria were grown in minimal medium (Bergensen, F. J. [1961] Aust. J. Biol. Sci. 14:349-360) for β-galactosidase activity. As required, antibiotics were used at the following concentrations, Cm (30 μg/ml), Sm (100 μg/ml), Sp (100 μg/ml), Tc (100 μg/ml). The B. japonicum strains used in this study were Bj110-42, BJAlac12, BJAlac23, BJAlac13 and BJ110-1248-1, ZB977, SL101 and Bj110-573. These strains harbored the following translational fusions; BJ110-1248-1 (nodD2-lacZ, plasmid pRJ1248, Dockendorff et al. [1994] Mol. Plant-Microbe Interact. 7:596-602), ZB977 (nodY-lacZ, plasmid pZB32, Banfalvi et al. [1988] Mol. Gen. Genet. 214:420-424), SL101 (npt-lacZ, Yuen, J. P.-Y and G. Stacey [1996] Mol. Plant-Microbe Interact. 9:424-428), and Bj110-573 (nodC-lacZ, chromosomally integrated fusion, Dockendorff et al. [1994] Mol. Plant-Microbe Interact 7:596-602). Strains Bj110-42, BJAlac23, BJAlac12, BJAlac13 harbored nolA-lacZ translational fusions encoded on plasmids pBGALac1, pNMAlac23, pNMAlac13, pNMAlac12 respectively (Garcia et al. [1996] Mol. Plant-Microbe Interact. 9:625-635; Loh et al. [1999] J. Bacteriol. 181:1544-1554). Plasmid pNMAlac23 contained mutations to ATG2 and ATG3 of nolA and allowed the specific expression of NolA1-lacZ. In contrast, plasmids pNMAlac13 (mutations to ATG1 and ATG3) and pNMAlac12 (mutation to ATG1 and ATG3, Loh et al. [1999] J. Bacteriol. 181:1544-1554) only expressed NolA2-lacZ and NolA3-lacZ, respectively.
Typically, B. japonicum cells are found in high population density in commercial inoculants. To determine if the bacterial nolA inducer was present in commercial inoculant, three soybean inoculants from two commercially available sources were extracted with butanol, and these extracts analyzed for their ability to induce the nolA-lacZ fusions.
As shown in Tables 2-3 and FIG. 11C, an inducer of nolA-lacZ and nodD2-lacZ expression was detected in conditioned medium from B. japonicum cultures grown to a high population density. […] The nolA inducer present in the conditioned medium was lost after dialysis using a membrane with a cutoff at 3 kDa (Fisher Scientific, Pittsburgh, Pa.).

nodY-lacZ = nodY-lacZ fusion induction by genistein in B. japonicum; type: cell-based, Bradyrhizobium japonicum; conditions: for Effect on nodY-lacZ expression: 0.025 μM genistein for five hours, with or without 500 μM FeCl3
Protocol: as §1
This view is supported experimentally by the following two results.
The levels of nod gene expression were also found to be affected by IND-1.

CDF production = CDF production in B. japonicum cultures grown with iron; type: cell-based, Bradyrhizobium japonicum; conditions: Fe^3+ added to B. japonicum cultures
[1] = test system: nodule occupancy by the NwsB mutant; assay: Nodule occupancy competition assay, NwsB mutant versus wild-type; type: in vivo, Glycine max; conditions: 25 μM BEHP; NwsB mutant and USDA110 at different ratios; 21 days post inoculation
Protocol: Different ratios of B. japonicum USDA110 and B. japonicum NwsB mutant were innoculated on soybean plants grown in growth pouches. At the time of innoculation, the root tip (RT) mark was noted on the outside of the pouches. Nodules were extracted 21 days post innoculation and the extracts were plated on RDY plates. Single colonies were picked and tested for streptomycin resistance (a marker for the NwsB mutant). (A) is above RT at time of innoculation; (B) below RT at time of innoculation.
We have generated, by recombinant means, mutations in the nwsB gene. The NwsB mutant appears to be defective in the recognition of the quorum signal and we have performed plant tests with the mutant in competition assays with the wild-type bacteria. In these assays, the effect of IND-1 (BEHP) on the ability of the NwsB mutant to nodulate soybean in the presence of wild-type bacteria (at different cell ratios) was examined. […] Nodule occupancy was scored both above (treated area) and below (new root growth) the root tip mark at the time of inoculation. […] These studies were conducted using 25 μM levels of BEHP.

[2] = test system: nodulation of soybean by B. japonicum; assay: Soybean nodulation plant test in growth pouches; type: in vivo, Glycine max; conditions: for Effect on nodulation of soybean (in words): B. japonicum cells pretreated 1 h, 10^7 cells per root, nodules counted 21 days post-inoculation
Protocol: The significance of nod gene repression by both IND-1 and the quorum factor was also investigated in plant tests. Seeds of Glycine maxcv Essex were surface sterilized, placed in sterile growth pouches (Mega International, MN) and cultivated as described by Nieuwkoop et al. (Nieuwkoop et al. [1987] J. Bacteriol. 169:2631-2638). Each seedling was inoculated with 10^7 B. japonicum cells. Prior to inoculation of the roots, B. japonicum cells were incubated for 1 h with concentrated, conditioned medium that had been sterilized by filtration through a […] filter (Millipore, Bedford, Mass.). The conditioned medium was used at a final concentration of 10 μl per 1 ml of culture. At the time of inoculation, the location of the root tip was marked on the outside of the plastic growth pouch. Plants were watered with nitrogen free nutrient solution (Wacek and Brill [1976] Crop Sci. 15:519-523). At 21 days post-inoculation, the number of nodules on each root both above and below the root tip mark was recorded.

NolA1-lacZ = NolA1-lacZ fusion β-galactosidase assay in B. japonicum; type: cell-based, Bradyrhizobium japonicum; conditions: NolA3-lacZ fusions compared
Protocol: as §1, with “Strains Bj110-42, BJAlac23, BJAlac12, BJAlac13 harbored nolA-lacZ translational fusions encoded on plasmids pBGALac1, pNMAlac23, pNMAlac13, pNMAlac12 respectively (Garcia et al. [1996] Mol. Plant-Microbe Interact. 9:625-635; Loh et al. [1999] J. Bacteriol. 181:1544-1554). Plasmid pNMAlac23 contained mutations to ATG2 and ATG3 of nolA and allowed the specific expression of NolA1-lacZ. In contrast, plasmids pNMAlac13 (mutations to ATG1 and ATG3) and pNMAlac12 (mutation to ATG1 and ATG3, Loh et al. [1999] J. Bacteriol. 181:1544-1554) only expressed NolA2-lacZ and NolA3-lacZ, respectively.” left out
As shown in Tables 2-3 and FIG. 11C, an inducer of nolA-lacZ and nodD2-lacZ expression was detected in conditioned medium from B. japonicum cultures grown to a high population density. […]

nodC-lacZ = nodC-lacZ fusion induction by genistein in B. japonicum Bj110-573; type: cell-based, Bradyrhizobium japonicum; conditions: 0.025 μM genistein, 5 hours; cells harvested at high population densities (A600=1.62 or 3.22)
Protocol: as §1, with “Plasmid pNMAlac23 contained mutations to ATG2 and ATG3 of nolA and allowed the specific expression of NolA1-lacZ. In contrast, plasmids pNMAlac13 (mutations to ATG1 and ATG3) and pNMAlac12 (mutation to ATG1 and ATG3, Loh et al. [1999] J. Bacteriol. 181:1544-1554) only expressed NolA2-lacZ and NolA3-lacZ, respectively.” left out

[3] = listed as phthalic acid bis-(2-ethyl-hexyl) ester

`[Cl][Fe]([Cl])[Cl]` [Fe^3+, FeCl3] was tested, and the “Effect on nolA expression at high culture densities” value (nolA-lacZ fusion; increasing concentrations of FeCl3 for five hours) was “significantly reduced the expression of nolA expression”, the “Effect on nodY-lacZ expression” value (nodY-lacZ) was “corresponding increase in nodY-lacZ expression” and the “Effect on nodY-lacZ expression” value (nodY-lacZ; listed as FeCl3) was “increase in the expression of a nodY-lacZ fusion protein”. The “Effect on CDF production” value (CDF production) was “inhibit CDF production”.
`CCCCC(CC)COC(=O)c1ccccc1C(=O)OCC(CC)CCCC` (stereo not shown) [IND-1, phthalic acid bis-(2-ethyl-hexyl) ester] was tested, and the “Induction of nolA expression (in words)” value (nolA-lacZ fusion) was “active on B. japonicum nolA-lacZ fusions; also recorded: capable of inducing nolA”, the “Induction of nolA expression (in words)” value (nolA-lacZ fusion; [3]) was “potent inducer of nolA; also recorded: strong inducer of NolA expression” and the “Percentage of nodules occupied by the NwsB mutant” value [1] was “increase the percentage of nodules that were occupied by the NwsB mutant”. For the same compound, the “Effect on nodulation of soybean (in words)” value [2] was “reduced nodulation efficiency”, the “Effect on nodulation of soybean (in words)” value [2, 3] was “inhibits nodulation” and the “Nodule phenotype in the presence of BEHP” value ([2]; UV treated USDA61 A2 73 cells inoculated onto soybean roots) was “delayed nodule phenotype”. The “Effect on nod gene (nodY-lacZ) induction by genistein (in words)” value (nodY-lacZ; B. japonicum at low population density, IND-1 in USDA110, USDA76, USDA31) was “reduced nodY-lacZ induction by genistein” and the “Which NolA form is affected (NolA1, NolA2, NolA3)” value (NolA1-lacZ) was “affect only NolA1 expression”.
For `O=c1c(-c2ccc(O)cc2)coc2cc(O)ccc12` [daidzein, reference compound], the “Induction of nolA expression (in words)” value (nolA-lacZ fusion) was “failed to induced nolA expression”.
For `O=c1c(-c2ccc(O)cc2)coc2cc(O)cc(O)c12` [genistein, reference compound], the “Induction of nolA expression (in words)” value (nolA-lacZ fusion) was “failed to induced nolA expression”, the “Induction of nodY-lacZ, β-galactosidase activity” value (nodY-lacZ; 0.05 μM genistein for 5 h, with or without CM (A600 = 1.0), CPRG substrate, mean of two ± SD) was 366 ± 11 U and the “nodC-lacZ induction by genistein” value (nodC-lacZ) was “Little or no nodC induction”.
